The target in one data set is human SSTR3 (Homo sapiens (Human), UniProt P32745). The experiment in a line: Radioligand binding assay, CHO cell membranes expressing recombinant human SSTR3. The text has this:
(§1) Radioligand Binding Assays
(§2) Method description for binding assays with human Somatostatin receptors by use of CHO cell membranes expressing recombinant human SSTR1 or human SSTR2 or human SSTR3 or human SSTR4 or human SSTR5
(§3) Receptor binding assays refer to a technique in which labeled receptor ligands are used to detect binding to a receptor. In competition experiments test compounds, which are not labeled, compete with the binding side of a labeled ligand. The displacement of the labeled ligand by the test compound leads to a decreased signal.
(§4) For the binding experiments 200 μL of membrane homogenate from one of the following protein amounts is used: hSSTR1 (40 μg/well); hSSTR2 (25 μg/well); hSSTR3 (1.5 μg/well); hSSTR4 (0.5 μg/well); hSSTR5 (25 μg/well). The homogenate is incubated with 0.05 nM of radioligand ([3-125I-Tyr]-Somatostatin-(1-14)) in addition to increasing concentrations of a test compound or vehicle (100% binding) in a total volume of 250 μL using a Hepes buffer (10 mM, EDTA 1 mM, MgCl2 5 mM, pH7.6, BSA 0.5%, Bacitracin 0.003%, DMSO 1%) for 180 min at room temperature. The incubation is terminated by filtration with ice cold NaCl 0.9% through polyethyleneimine treated (0.3%) GF/B glass fiber filters using a cell harvester. The protein-bound radioactivity is measured in a suitable reader. The non-specific binding is defined as radioactivity bound in the presence of 1 μM Somatostatin-14 during the incubation period.
(§5) The analysis of the concentration-binding curves is performed by computer-assisted nonlinear least square curve fitting method using the model of one receptor binding site.
(§6) Selectivity data was obtained with the aid of the above described radioligand binding assays.

Another data set concerns the target human SSTR4 (Homo sapiens (Human), UniProt P31391). Put plainly: Radioligand binding assay, CHO cell membranes expressing recombinant human SSTR4.
Text: as §1, §2, §3, §4, §5, §6

The next data set addresses human SSTR5 (Homo sapiens (Human), UniProt P35346). Put plainly: Radioligand binding assay, CHO cell membranes expressing recombinant human SSTR5.
Text: as §1, §2, §3, §4, §5, §6

Another data set deals with human SSTR2 (Homo sapiens (Human), UniProt P30874). The experiment in a line: Radioligand binding assay, CHO cell membranes expressing recombinant human SSTR2.
Sequence of human SSTR2 (P30874 whole entry): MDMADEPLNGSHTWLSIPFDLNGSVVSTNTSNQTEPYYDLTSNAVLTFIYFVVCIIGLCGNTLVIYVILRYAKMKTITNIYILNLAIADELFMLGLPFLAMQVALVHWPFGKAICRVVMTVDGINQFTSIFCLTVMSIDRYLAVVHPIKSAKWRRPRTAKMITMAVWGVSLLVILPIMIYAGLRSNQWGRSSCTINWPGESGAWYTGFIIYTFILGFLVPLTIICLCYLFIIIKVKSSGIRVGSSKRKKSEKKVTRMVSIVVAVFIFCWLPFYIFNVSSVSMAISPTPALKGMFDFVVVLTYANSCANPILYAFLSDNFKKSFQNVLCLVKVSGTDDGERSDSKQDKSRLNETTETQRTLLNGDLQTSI
Text: as §1, §2, §3, §4, §5, §6

Another data set is described as follows: in vitro. Particulars: human, microsomes, pH 7.6.
In a further data set the target is human SSTR1 (Homo sapiens (Human), UniProt P30872). The experiment in a line: Radioligand binding assay, CHO cell membranes expressing recombinant human SSTR1.
Sequence of human SSTR1 (P30872 whole entry): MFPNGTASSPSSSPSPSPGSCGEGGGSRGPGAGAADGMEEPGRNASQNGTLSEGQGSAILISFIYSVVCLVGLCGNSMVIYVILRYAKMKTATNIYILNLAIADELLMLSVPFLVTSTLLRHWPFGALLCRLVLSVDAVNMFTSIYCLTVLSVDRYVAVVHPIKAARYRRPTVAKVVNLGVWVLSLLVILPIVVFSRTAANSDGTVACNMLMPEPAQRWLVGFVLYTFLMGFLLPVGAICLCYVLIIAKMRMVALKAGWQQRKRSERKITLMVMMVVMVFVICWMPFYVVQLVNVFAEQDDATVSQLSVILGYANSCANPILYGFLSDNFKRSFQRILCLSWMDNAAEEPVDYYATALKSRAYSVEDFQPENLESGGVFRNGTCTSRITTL
Text: as §1, §2, §3, §4, §5, §6

Data set [1] concerns the target human Somatostatin 4 Receptor (SSTR4) (Homo sapiens (Human), UniProt P31391). The experiment in a line: cAMP assay with human somatostatin 4 receptor (hSSTR4 expressing H4 cells). Format: cell-based. Particulars: read-out: SSTR4 agonism EC50.
A short description of data set [2]: Metabolic stability in pooled human liver microsomes. The conditions noted are these: 1 μM test compound, 37° C. For orientation: Liver microsomes are a subcellular fraction often used to study metabolism.
The conditions of data set [3]: human, microsomes.

The source of these data is patent publication US10071974B2, “Morpholine and 1,4-oxazepane amides as somatostatin receptor subtype 4 (SSTR4) agonists” (Boehringer Ingelheim International GmbH, priority 2014, dated 2018).

pEC50, pKi: −log10 of the molar value. Where two headings read alike, the source gives them in different places.

Sequence of human SSTR5 (P35346 whole entry): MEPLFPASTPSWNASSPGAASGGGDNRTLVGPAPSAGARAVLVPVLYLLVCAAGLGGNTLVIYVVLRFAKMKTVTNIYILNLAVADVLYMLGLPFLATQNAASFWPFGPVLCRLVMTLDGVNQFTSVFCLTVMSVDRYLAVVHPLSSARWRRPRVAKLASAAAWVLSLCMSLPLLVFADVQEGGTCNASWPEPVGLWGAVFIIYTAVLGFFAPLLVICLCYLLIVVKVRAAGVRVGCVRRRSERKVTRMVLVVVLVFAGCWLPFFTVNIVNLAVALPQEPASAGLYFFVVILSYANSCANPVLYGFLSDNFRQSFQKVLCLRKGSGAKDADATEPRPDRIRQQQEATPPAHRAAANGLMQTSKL
Sequence of human Somatostatin 4 Receptor (SSTR4) (P31391 whole entry): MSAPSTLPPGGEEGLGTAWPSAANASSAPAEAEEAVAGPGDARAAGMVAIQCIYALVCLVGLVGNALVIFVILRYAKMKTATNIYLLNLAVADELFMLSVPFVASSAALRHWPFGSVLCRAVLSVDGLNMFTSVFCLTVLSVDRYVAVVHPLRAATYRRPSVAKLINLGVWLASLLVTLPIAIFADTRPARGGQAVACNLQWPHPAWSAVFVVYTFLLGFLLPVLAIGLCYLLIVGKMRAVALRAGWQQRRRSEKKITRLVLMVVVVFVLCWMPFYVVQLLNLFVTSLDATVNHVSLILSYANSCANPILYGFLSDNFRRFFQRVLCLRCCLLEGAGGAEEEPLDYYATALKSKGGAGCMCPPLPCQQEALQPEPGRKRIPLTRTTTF
Sequence of human SSTR4 (P31391 whole entry): as above
Sequence of human SSTR3 (P32745 whole entry): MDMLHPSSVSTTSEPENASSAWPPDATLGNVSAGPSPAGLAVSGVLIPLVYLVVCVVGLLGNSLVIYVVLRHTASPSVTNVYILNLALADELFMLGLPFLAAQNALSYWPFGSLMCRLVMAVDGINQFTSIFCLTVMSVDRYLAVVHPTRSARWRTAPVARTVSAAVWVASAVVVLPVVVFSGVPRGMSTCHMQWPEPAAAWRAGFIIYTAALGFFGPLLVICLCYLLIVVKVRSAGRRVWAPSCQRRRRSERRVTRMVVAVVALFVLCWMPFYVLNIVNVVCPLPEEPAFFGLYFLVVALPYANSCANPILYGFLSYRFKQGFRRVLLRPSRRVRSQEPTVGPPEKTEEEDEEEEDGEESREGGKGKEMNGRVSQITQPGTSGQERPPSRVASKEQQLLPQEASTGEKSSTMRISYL

As for `Cn1nc(C(C)(C)NC(=O)C2CNCCCO2)c2ccccc21` (single isomer, unassigned) [Example 24], the pKi (commonly −log10 of the Ki, conventionally taken in molar units) at human SSTR3 was 5.06; on human SSTR4, 6.28; on human SSTR5, 5.01; at human SSTR2, 5.02; at human SSTR1 it was 5.02. The half-life (commonly the time in which the quantity being followed falls by half) at 1 μM in “in vitro” was > 2.17 h. In addition, the pEC50 (usually the EC50 on a negative log10 scale, so that one unit is a factor of ten) in data set [1] was 7.44.

As to `Cc1cccn2c(C(C)(C)NC(=O)[C@@H]3CNCCO3)ncc12` [Example 95], the negative-log Ki (pKi) was 5.06 at human SSTR3; 6.66 at human SSTR4; 5.01 on human SSTR5; 5.02 at human SSTR2; 5.02 at human SSTR1. For the same compound, the half-life at 1 μM in the data set “in vitro” was > 2.17 h. Besides, the pEC50 in data set [1] was 8.35.

As to `Cn1nc(C(C)(C)NC(=O)C2CNCCOC2)c2ccccc21` (single isomer, unassigned) [Example 21], the pKi was 5.06 on human SSTR3; 7.05 at human SSTR4; 5.01 on human SSTR5; 5.02 at human SSTR2; 5.02 at human SSTR1. In the data set “in vitro”, the half-life at 1 μM is > 2.17 h. The pEC50 in data set [1] was 8.49.

For the compound `Cc1cccc2c(C(C)(C)NC(=O)[C@@H]3CNCCO3)nn(C)c12` [Example 83], in data set [2], the “Half-life t1/2” value was >2.17 h. Also, the pEC50 in data set [1] was 8.39.

For the compound `CC(C)(NC(=O)C1CNCCOC1)c1noc2c(Cl)cccc12` (single isomer, unassigned) [Example 73], the “Half-life t1/2” value in data set [3] was >2.17 h.

As for `Cn1nc(C(C)(C)NC(=O)[C@@H]2CNCCO2)c2cccc(Cl)c21` [Example 79], in data set [2], the “Half-life t1/2” value amounted to 1.67 h.

In the case of `Cn1nc(C(C)(C)NC(=O)[C@@H]2CNCCO2)c2ccccc21` [Example 19], the negative-log Ki (pKi) was 5.06 on human SSTR3; 6.71 on human SSTR4; 5.01 on human SSTR5; 5.02 on human SSTR2; 5.05 at human SSTR1. The half-life at 1 μM in the data set “in vitro” was > 2.17 h. The pEC50 in data set [1] is 7.88.
